Measurements reported in ChEMBL document CHEMBL3232907, “A high-throughput cell-based method to predict the unbound drug fraction in the brain” (J Med Chem, 2014).

Experiment: Unbound fraction in HEK293 cell homogenate at 0.01 uM by equilibrium dialysis based UPLC-MS/MS analysis
Assay type: ADME
Settings: human, hek293, 0.01 µM

Work on Cc1c(O)cccc1C(=O)N[C@@H](CSc1ccccc1)[C@H](O)CN1C[C@H]2CCCC[C@H]2C[C@H]1C(=O)NC(C)(C)C yielded a Fu of 0.024.

Settings: human, hek293, 0.1 µM

Point of comparison: CNC(=C[N+](=O)[O-])NCCSCc1ccc(CN(C)C)o1 [RANITIDINE], Fu 1. Against it:
- CCN(CC)CCNC(=O)c1cc(Cl)c(N)cc1OC [METOCLOPRAMIDE] — lower, 0.95
- CC(CN(C)C)CN1c2ccccc2CCc2ccccc21 (stereo unspecified) [TRIMIPRAMINE] — lower, 0.4
- CC(=O)N1CCN(c2ccc(OCC3COC(Cn4ccnc4)(c4ccc(Cl)cc4Cl)O3)cc2)CC1 (stereo unspecified) [KETOCONAZOLE] — lower, 0.39
- Cc1nccn1CC1CCc2c(c3ccccc3n2C)C1=O (stereo unspecified) [ONDANSETRON] — lower, 0.94
- CN(C)C(=O)C(CCN1CCC(O)(c2ccc(Cl)cc2)CC1)(c1ccccc1)c1ccccc1 [LOPERAMIDE] — lower, 0.35
- O=C(CCCN1CCC(O)(c2ccc(Cl)cc2)CC1)c1ccc(F)cc1 [HALOPERIDOL] — lower, 0.52
- CO[C@H]1/C=C/O[C@@]2(C)Oc3c(C)c(O)c4c(O)c(c(/C=N/N5CCN(C)CC5)c(O)c4c3C2=O)NC(=O)/C(C)=C\C=C\[C@H](C)[C@H](O)[C@@H](C)[C@@H](O)[C@@H](C)[C@H](OC(C)=O)[C@@H]1C [RIFAMPIN] — lower, 0.62
- CN/C(=N/CCSCc1nc[nH]c1C)NC#N [CIMETIDINE] — the same, 1
- O=C(O)Cc1ccccc1Nc1c(Cl)cccc1Cl [DICLOFENAC] — lower, 0.78
- CCCCN1CCCCC1C(=O)Nc1c(C)cccc1C (stereo unspecified) [BUPIVACAINE] — lower, 0.89
- COc1ccc2c(c1)c(CC(=O)O)c(C)n2C(=O)c1ccc(Cl)cc1 [INDOMETHACIN] — lower, 0.79
- O=C(O)c1cc(/N=N/c2ccc(S(=O)(=O)Nc3ccccn3)cc2)ccc1O [SULFASALAZINE] — lower, 0.72
- COCCc1ccc(OCC(O)CNC(C)C)cc1 (stereo unspecified) [METOPROLOL] — the same, 1
- CC[C@H](C)C(=O)O[C@H]1C[C@@H](C)C=C2C=C[C@H](C)[C@H](CC[C@@H]3C[C@@H](O)CC(=O)O3)[C@H]21 [LOVASTATIN] — lower, 0.22
- C[C@@H]1CN(c2c(F)c(N)c3c(=O)c(C(=O)O)cn(C4CC4)c3c2F)C[C@H](C)N1 [SPARFLOXACIN] — lower, 0.88
- NC(=O)N1c2ccccc2C=Cc2ccccc21 [CARBAMAZEPINE] — lower, 0.97
- CCCc1nc2c(C)cc(-c3nc4ccccc4n3C)cc2n1Cc1ccc(-c2ccccc2C(=O)O)cc1 — lower, 0.42
- O=C(CCCN1CCC2(CC1)C(=O)NCN2c1ccccc1)c1ccc(F)cc1 [SPIPERONE] — lower, 0.66
- CC(C)CN(C[C@@H](O)[C@H](Cc1ccccc1)NC(=O)O[C@H]1CCOC1)S(=O)(=O)c1ccc(N)cc1 — lower, 0.92
- CSc1ccc2c(c1)N(CCC1CCCCN1C)c1ccccc1S2 (stereo unspecified) [THIORIDAZINE] — lower, 0.049
- CC(C)(C)NCC(O)COc1ccc(NC(=O)NC2CCCCC2)cc1 (stereo unspecified) [TALINOLOL] — lower, 0.85
- CC(C)(C)NC(=O)[C@@H]1C[C@@H]2CCCC[C@@H]2CN1C[C@@H](O)[C@H](Cc1ccccc1)NC(=O)[C@H](CC(N)=O)NC(=O)c1ccc2ccccc2n1 — lower, 0.17
- CN(C)CCCN1c2ccccc2CCc2ccc(Cl)cc21 [CLOMIPRAMINE] — lower, 0.19
- COC(=O)C1=C(C)NC(C)=C(C(=O)OCCN(C)Cc2ccccc2)C1c1cccc([N+](=O)[O-])c1 (stereo unspecified) [NICARDIPINE] — lower, 0.095
- CC(=O)[C@H]1CC[C@H]2[C@@H]3CCC4=CC(=O)CC[C@]4(C)[C@H]3CC[C@]12C [PROGESTERONE] — lower, 0.67
- COc1ccc2c(c1)[C@]13CCCC[C@@H]1[C@H](C2)N(C)CC3 [DEXTROMETHORPHAN] — lower, 0.82
- CCCNC(=O)NS(=O)(=O)c1ccc(Cl)cc1 [CHLORPROPAMIDE] — the same, 1
- Fc1ccc([C@@H]2CCNC[C@H]2COc2ccc3c(c2)OCO3)cc1 [PAROXETINE] — lower, 0.25
- COCc1c(C(C)C)nc(C(C)C)c(/C=C/[C@@H](O)C[C@@H](O)CC(=O)O)c1-c1ccc(F)cc1 [CERIVASTATIN] — lower, 0.55
- CN(C)CCCC1(c2ccc(F)cc2)OCc2cc(C#N)ccc21 (stereo unspecified) [CITALOPRAM] — lower, 0.81
- O=C1c2c(O)ccc(O)c2C(=O)c2c(NCCNCCO)ccc(NCCNCCO)c21 [MITOXANTRONE] — lower, 0.13
- CC(C)NCC(O)COc1cccc2ccccc12 (stereo unspecified) [PROPRANOLOL] — lower, 0.7
- Cc1ncc2n1-c1ccc(Cl)cc1C(c1ccccc1F)=NC2 [MIDAZOLAM] — lower, 0.66
- C=CCc1ccccc1OCC(O)CNC(C)C (stereo unspecified) [ALPRENOLOL] — lower, 0.9
